ChEMBL document CHEMBL4007481, “Synthesis and antibacterial activity of 3-benzylamide derivatives as FtsZ inhibitors” (Bioorg Med Chem Lett, 2017)
The source made the active and inactive calls. The calls are words filed in the database; no cut-off is given here.

Key:
[1] = molecular target: T1, Cell division protein FtsZ (Staphylococcus aureus) (UniProt P0A031); assay: Inhibition of FtsZ in Staphylococcus aureus ATCC 6538P assessed as growth inhibition at 100 ug per disc after 18 to 24 hrs by paper disc agar diffusion assay
T1 sequence (whole entry): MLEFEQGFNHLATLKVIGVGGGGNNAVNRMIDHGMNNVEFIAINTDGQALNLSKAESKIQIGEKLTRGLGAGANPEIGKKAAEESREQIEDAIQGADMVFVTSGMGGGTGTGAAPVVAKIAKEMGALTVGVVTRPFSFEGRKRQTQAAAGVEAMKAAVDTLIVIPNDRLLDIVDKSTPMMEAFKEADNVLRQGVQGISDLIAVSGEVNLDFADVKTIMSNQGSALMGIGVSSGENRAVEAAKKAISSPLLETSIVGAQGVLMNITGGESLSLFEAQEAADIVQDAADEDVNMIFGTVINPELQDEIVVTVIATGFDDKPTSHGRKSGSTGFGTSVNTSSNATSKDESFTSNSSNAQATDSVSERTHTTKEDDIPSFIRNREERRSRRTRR

[2] = system: Bacillus subtilis subsp. spizizenii ATCC 6633 = JCM 2499; assay: Inhibition of FtsZ in Bacillus subtilis ATCC 6633 assessed as growth inhibition at 100 ug per disc after 18 to 24 hrs by paper disc agar diffusion assay
[3] = system: Mycolicibacterium smegmatis; assay: Inhibition of FtsZ in Mycobacterium smegmatis ATCC 607 assessed as growth inhibition at 100 ug per disc after 18 to 24 hrs by paper disc agar diffusion assay
Pseudomonas aeruginosa = assay: Inhibition of FtsZ in Pseudomonas aeruginosa ATCC 9027 assessed as growth inhibition at 100 ug per disc after 18 to 24 hrs by paper disc agar diffusion assay
[4] = system: Escherichia coli ATCC 25922; assay: Inhibition of FtsZ in Escherichia coli ATCC 25922 assessed as growth inhibition at 100 ug per disc after 18 to 24 hrs by paper disc agar diffusion assay
Candida albicans = assay: Antifungal activity against Candida albicans ATCC 10231 at 100 ug per disc after 3 to 5 days by paper disc agar diffusion assay; assay type: functional
Aspergillus niger = assay: Antifungal activity against Aspergillus niger ATCC 16404 at 100 ug per disc after 3 to 5 days by paper disc agar diffusion assay; assay type: functional
Klebsiella aerogenes = assay: Inhibition of FtsZ in Klebsiella aerogenes ATCC 9621 assessed as growth inhibition at 100 ug per disc after 18 to 24 hrs by paper disc agar diffusion assay
[5] = molecular target: T1, Cell division protein FtsZ (Staphylococcus aureus); assay: Inhibition of FtsZ in Staphylococcus aureus ATCC 6538P assessed as ratio of diameter of zone inhibition of test compound to diameter of zone inhibition of cephaloridine at 100 ug per disc after 18 to 24 hrs by paper disc agar diffusion assay
[6] = system: Bacillus subtilis subsp. spizizenii ATCC 6633 = JCM 2499; assay: Inhibition of FtsZ in Bacillus subtilis ATCC 6633 assessed as ratio of diameter of zone inhibition of test compound to diameter of zone inhibition of tetracycline at 100 ug per disc after 18 to 24 hrs by paper disc agar diffusion assay
[7] = system: Mycolicibacterium smegmatis; assay: Inhibition of FtsZ in Mycobacterium smegmatis ATCC 607 assessed as ratio of diameter of zone inhibition of test compound to diameter of zone inhibition of streptomycin at 100 ug per disc after 18 to 24 hrs by paper disc agar diffusion assay
Klebsiella pneumoniae = assay: Inhibition of FtsZ in Klebsiella pneumoniae ATCC 9621 assessed as growth inhibition at 100 ug per disc after 18 to 24 hrs by paper disc agar diffusion assay

Compound	inhibition [1]	inhibition [2]	inhibition [3]	inhibition (Pseudomonas aeruginosa)	inhibition [4]	inhibition (Klebsiella aerogenes)	Ratio [5]	Ratio [6]	Ratio [7]	inhibition (Klebsiella pneumoniae)	Activity (Candida albicans)	Activity (Aspergillus niger)
Cc1ccc2cccc(OCCCOc3ccc(F)c(C(N)=O)c3F)c2n1	inactive	inactive	inactive	inactive	inactive	inactive	–	–	–	–	inactive	inactive
Cc1ccc(OC(=O)COc2ccc(F)c(C(N)=O)c2F)cc1	–	–	–	inactive	inactive	inactive	0.25	0.3	0.07	–	inactive	inactive
NC(=O)c1c(F)ccc(OCCCOc2ccc(Cl)c3cccnc23)c1F	–	–	inactive	inactive	inactive	inactive	0.25	0.1	–	–	inactive	inactive
NC(=O)c1c(F)ccc(OCc2nc3cc(Cl)cnc3s2)c1F	–	inactive	inactive	–	–	–	1.2	–	–	–	–	–
N#Cc1ccc(OCCOC(=O)COc2ccc(F)c(C(N)=O)c2F)cc1	inactive	–	inactive	inactive	inactive	inactive	–	0.11	–	–	inactive	inactive
NS(=O)(=O)c1c(F)ccc(OCc2nc3cc(Cl)cnc3s2)c1F	inactive	inactive	inactive	inactive	inactive	inactive	–	–	–	–	inactive	inactive
NC(=O)c1c(F)ccc(OCCCOc2c(Cl)cc(Cl)c3cccnc23)c1F	–	–	–	inactive	inactive	inactive	0.18	0.1	0.2	–	inactive	inactive
NS(=O)(=O)c1c(F)ccc(OCc2nc3cc(Cl)ccc3s2)c1F	inactive	inactive	inactive	inactive	inactive	inactive	–	–	–	–	inactive	inactive
COc1ccc(OC(=O)COc2ccc(F)c(C(N)=O)c2F)cc1	inactive	–	–	inactive	inactive	inactive	–	0.15	0.19	–	inactive	inactive
NC(=O)c1c(F)ccc(OCCCOc2cccc3cccnc23)c1F	–	inactive	inactive	inactive	inactive	inactive	0.07	–	–	–	inactive	inactive

Further lines, with some results ahead:

inhibition [1]	inhibition [2]	inhibition [3]	inhibition (Pseudomonas aeruginosa)	inhibition [4]	inhibition (Klebsiella aerogenes)	Ratio [5]	Ratio [6]	Ratio [7]	inhibition (Klebsiella pneumoniae)	Compound	Activity (Candida albicans)	Activity (Aspergillus niger)
–	–	–	inactive	inactive	inactive	0.18	0.18	0.36	–	NC(=O)c1c(F)ccc(OCC(=O)OCCOc2ccccc2)c1F	inactive	inactive
–	–	–	inactive	inactive	inactive	0.07	0.19	0.5	–	NC(=O)c1c(F)ccc(OCC(=O)Oc2ccccc2)c1F	inactive	inactive
inactive	inactive	inactive	inactive	inactive	–	–	–	–	inactive	NC(=O)c1c(F)ccc(OCCCOC(=O)c2ccccc2)c1F	inactive	inactive
–	–	inactive	inactive	inactive	inactive	0.1	0.1	–	–	NC(=O)c1c(F)ccc(OCC(=O)Nc2ccccc2)c1F	inactive	inactive
inactive	–	inactive	inactive	inactive	inactive	–	0.18	–	–	NC(=O)c1c(F)ccc(OCC(=O)OCc2ccccc2)c1F	inactive	inactive
–	–	–	inactive	inactive	inactive	0.41	0.3	–	–	NC(=O)c1c(F)ccc(OCCC(=O)Oc2ccccc2)c1F	inactive	inactive
inactive	–	–	inactive	inactive	inactive	–	0.51	0.37	–	COc1ccc(OCCOC(=O)COc2ccc(F)c(C(N)=O)c2F)cc1	inactive	inactive
–	–	–	inactive	inactive	inactive	0.44	0.18	0.62	–	NC(=O)c1c(F)ccc(OCC(=O)OCCOc2ccc(F)cc2)c1F	inactive	inactive
–	–	inactive	inactive	inactive	inactive	0.1	0.25	–	–	Cc1ccc(OCCOC(=O)COc2ccc(F)c(C(N)=O)c2F)cc1	inactive	inactive
–	–	inactive	inactive	inactive	inactive	0.22	0.15	–	–	NC(=O)c1c(F)ccc(OCC(=O)OCCOc2ccc(Br)cc2)c1F	inactive	inactive
inactive	inactive	inactive	inactive	inactive	inactive	–	–	–	–	NC(=O)c1c(F)ccc(OCCCOc2cccc3ccccc23)c1F	inactive	inactive
inactive	inactive	inactive	inactive	inactive	inactive	–	–	–	–	NC(=O)c1c(F)ccc(OCCCOc2ccc3ccccc3c2)c1F	inactive	inactive
inactive	inactive	inactive	inactive	inactive	–	–	–	–	inactive	NC(=O)c1c(F)ccc(OCCOC(=O)c2ccccc2)c1F	inactive	inactive
